The values that follow come from patent publication US6319678A, “Process for glucuronidation screening” (PanVera Corporation, priority 1999, dated 2001).

In data set [1] the target is bacterial b-glucuronidase (Escherichia coli, UniProt P05804). The data set is described as follows: Inhibition of b-glucuronidase cleavage of 4-methylumbelliferyl-b-D-glucuronide by competitor b-D-glucuronides (FIG. 2). In kind it is biochemical. The note with it: 20 μM 4-methylumbelliferyl-b-D-glucuronide, result in words. How it is done: FIG. 1 Kinetic measurements of 4-methylumbelliferylb-D-glucuronide cleavage by b-gluuronidase. In part A, 100 μl assays were performed in triplicate using 100 mM Tris-HCl buffer, pH 7.4, containing 10 mM MgCl2, 0.1 μg/ml b-gluuronidase and 5 (.box-solid.), 20 (.tangle-solidup.), and 100 (.circle-solid.) μM, 4-methylumbelliferyl-b-D-glucuronide. Reactions were started by the addition of enzyme, incubated for indicated times at ambient temperature and then quenched with 100 μl of 0.1 M Na2 CO3, pH 9.5, containing 0.1% CHAPS. Fluorescence intensity was measured with a Beacon fluorescent polarization instrument (PanVera Corporation, Madison, Wis.) in intensity mode, using excitation and emission filters of 360 nm and 440 nm, respectively, and slit widths set at 10 nm. Part B, assays were performed in duplicate for 20 min as above with the indicated amount of 4-methylumbelliferyl-b-D-glucuronide. 4-Methyumbelliferone concentration was determined from a calibration curve.
FIG. 2 Inhibition curves. Assays were performed as described in the legend to FIG. 1B with 20 .quadrature.M 4-methylumbelliferyl-b-D-glucuronide and the indicated amount of competitor b-D-glucuronide. Fluorescence intensity due to 4-methylumbelliferyl-b-D-glucuronide cleavage, in the absence of a competitor was arbitrarily assigned as 100%. Competitors, α-napthyl b-D-glucuronide (.box-solid.), .quadrature.-trifluoromethylumbelliferyl-b-D-glucuronide (o), .quadrature.-estradiol 3-.quadrature.b-D-glucuronide) (.tangle-solidup.), p-acetominophenyl b-D-glucuronide (.circle-solid.), 5.quadrature.-androstane-3α, 17α-diol-11-one-17-carboxylic acid-3-(b-D-glucuronide) (.tangle-soliddn.) and UDPGA (.E-backward.) were dissolved in 100 mM Tris-HCl, containing 10 mM MgCl2, pH 7.5. Tetrahydrocortisone 3-b-D-glucuronide (.diamond-solid.) was prepared in DMSO. The DMSO in reaction mixtures was 0.1% or less.
Assay Principle: Cleavage of 4-methylumbelliferyl b-D-glucuronide by bacterial b-glucuronidase generates the highly fluorescent compound, 4-methylumbelliferone. Diverse b-D-glucuronides act as competitors of b-glucuronidase, thus providing the basis of a coupled assay method for detection of glucuronide production by recombinant UGT isozymes. […] The 4-methylumbelliferyl b-D-glucuronide cleavage assay can easily be adapted to high throughput formats to detect the presence of b-D glucuronides generated using recombinant glycosyl transferase preparations.
Methods are included in text and figure legends. b-D-glucuronidase (Part G-7396), α-napthyl b-D-glucuronide, b-trifluoromethylumbelliferyl b-D-glucuronide, b-estradiol 3-(b-D-glucuronide), p-acetominophenyl b-D-glucuronide, 5 .quadrature.-androstane-3α, 17α-diol-11-one-17-carboxilic acid-3-(b-D-glucuronide), UDPGA and 4-methylumbelliferone b-D-glucuronide were obtained from Sigma, St. Louis Mo. Tetrahydrocortisone 3-b-D-glucuronide was obtained from Molecular Probes, Eugene, Oreg. Recombinant control and UGT1A6 membrane preparations were generated at PanVera Corporation and are commercially available from PanVera, Madison Wis. All other reagents were analytical grade or better and purchased from a variety of commercial sources.
In order to show the feasibility of developing a high throughput inhibition assay, we examined the potential of a variety of structurally dissimilar commercially available b-D-glucuronides to act as inhibitors for the cleavage of 4-methylumbelliferyl-b-D-glucuronide. […]

The conditions of data set [2]: background; cited from earlier work.
The next data set deals with UGT1A6. The data set is described as follows: Accumulation of naphthyl glucuronide in UGT1A6 assay using [14C] UDPGA. In kind it is in vitro ADME, human. The note with it: parallel experiment using [14C] UDPGA, data not shown. How it is done: Two approaches were taken to test the feasibility of coupling the UGT-dependent production of glucuronides to inhibition of fluorescent product formation by b-D-glucuronidase. The first involved extracting the UGT reaction products and adding them to the b-D-glucuronidase fluorescence assay reagents; the second involved adding the b-D-glucuronidase reaction components directly to the quenched UGT reaction. In the first approach, α-naphthyl b-D-glucuronide was generated in an incubation with recombinant human UGT1A6 and α-naphthol. Following extraction, 4-methylumbelliferyl-b-D-glucuronide assay reagents were added to the extracted, dried reaction residues. […] Inhibition of 4-methylumbelliferyl-b-D-glucuronide cleavage was dependent on the incubation time of the UGT1A6 assay, presumably reflecting increased .quadrature.-naphthyl glucuronide accumulation.

For a further data set, the target named is T1, recombinant human UGT1A6 (Homo sapiens, UniProt P19224).
T1 sequence (P19224 27-532): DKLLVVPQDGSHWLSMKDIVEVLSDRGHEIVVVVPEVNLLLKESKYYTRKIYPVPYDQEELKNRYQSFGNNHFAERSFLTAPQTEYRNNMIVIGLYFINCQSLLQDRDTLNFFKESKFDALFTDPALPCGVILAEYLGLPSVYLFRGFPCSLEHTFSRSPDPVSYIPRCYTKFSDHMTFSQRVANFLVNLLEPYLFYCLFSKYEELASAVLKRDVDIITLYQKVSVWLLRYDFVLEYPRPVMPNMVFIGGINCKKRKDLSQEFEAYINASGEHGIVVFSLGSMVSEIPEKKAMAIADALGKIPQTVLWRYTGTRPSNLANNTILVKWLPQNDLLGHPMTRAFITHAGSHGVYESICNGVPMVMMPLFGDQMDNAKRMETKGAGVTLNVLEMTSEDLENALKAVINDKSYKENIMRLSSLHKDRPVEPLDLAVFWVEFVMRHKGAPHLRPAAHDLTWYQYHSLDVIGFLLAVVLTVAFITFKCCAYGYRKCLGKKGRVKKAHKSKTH
The data set is described as follows: Coupled assay: extracted residues of UGT1A6 / α-naphthol incubation added to b-glucuronidase fluorescence assay (FIG. 3A). In kind it is biochemical. The source says:
All other reagents were analytical grade or better and purchased from a variety of commercial sources.

The next data set has as its system UGT1A1. The note with it: as in patients with Gilbert's syndrome; background; cited from earlier work.
The conditions of data set [3]: background; cited from earlier work. The source holds these as a separate data set.

Chain of bacterial b-glucuronidase (P05804 whole entry): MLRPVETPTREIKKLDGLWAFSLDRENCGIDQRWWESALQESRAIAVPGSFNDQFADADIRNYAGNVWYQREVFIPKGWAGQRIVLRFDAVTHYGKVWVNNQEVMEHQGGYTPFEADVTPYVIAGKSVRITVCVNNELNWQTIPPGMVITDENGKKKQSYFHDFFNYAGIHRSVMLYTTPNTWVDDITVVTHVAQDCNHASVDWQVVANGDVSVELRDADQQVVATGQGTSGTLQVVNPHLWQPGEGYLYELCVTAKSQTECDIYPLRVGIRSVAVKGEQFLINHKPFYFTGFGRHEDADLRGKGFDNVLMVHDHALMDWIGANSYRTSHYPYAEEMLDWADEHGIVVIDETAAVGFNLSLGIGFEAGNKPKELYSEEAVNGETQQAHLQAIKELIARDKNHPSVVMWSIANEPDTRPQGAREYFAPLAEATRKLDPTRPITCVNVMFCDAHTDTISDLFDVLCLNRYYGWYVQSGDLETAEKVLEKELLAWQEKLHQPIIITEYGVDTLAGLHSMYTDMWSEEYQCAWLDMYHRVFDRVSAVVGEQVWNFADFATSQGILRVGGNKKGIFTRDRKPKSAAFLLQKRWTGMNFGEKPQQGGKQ

As to `C[C@]12CC[C@@H]3c4ccc(O[C@@H]5O[C@H](C(=O)O)[C@@H](O)[C@H](O)[C@H]5O)cc4CC[C@H]3[C@@H]1CC[C@@H]2O` [b-estradiol-3-(b-D-glucuronide), b-estradiol 3-(b-D-glucuronide)], the entries for the “inhibition of 4-methylumbelliferyl-b-D-glucuronide cleavage (production of 4-methylumbelliferone) by b-glucuronidase” value (“inhibition … by b-glucuronidase” for short) in data set [1] and in data set [1] (listed as estradiol b-D-glucuronide) were “strongest” and “More potent inhibitors”, respectively.

In the case of `CN1CC[C@]23c4c5ccc(O)c4O[C@H]2[C@@H](O[C@@H]2O[C@H](C(=O)O)[C@@H](O)[C@H](O)[C@H]2O)C=C[C@H]3[C@H]1C5` [6-glucuronide of morphine], the “analgesic potency relative to the parent compound morphine” value in data set [2] is given as “more potent analgesic than the parent compound”.

On to `O=C(O)[C@H]1O[C@@H](Oc2cccc3ccccc23)[C@H](O)[C@@H](O)[C@@H]1O` [α-naphthyl b-D-glucuronide], for which the “accumulation of naphthyl glucuronide in the UGT1A6 assay” value with UGT1A6 is “independently verified”. The “inhibition … by b-glucuronidase” value is recorded as “weakest” in data set [1] and “weak competitive inhibitor” in data set [1] (listed as α-naphthol b-D-glucuronide). The “inhibition of 4-methylumbelliferyl-b-D-glucuronide cleavage by extracted residues of UGT1A6 assay” value at recombinant human UGT1A6 (FIG. 3A, 0.6 mg/ml UGT1A6, 2 mM UDPGA, 0.6 mM α-naphthol, 37° C, ethyl acetate extraction, vs control microsomes) is “inhibited 4-methylumbelliferyl-b-D-glucuronide cleavage”.

Regarding `Oc1cccc2ccccc12` [α-naphthol], the “interference of aglycone with the 4-methylumbelliferyl-b-D-glucuronide cleavage assay” value at recombinant human UGT1A6 is on record as “does not interfere non-specifically”.

In the case of `CCc1c2c(nc3ccc(OC(=O)N4CCC(N5CCCCC5)CC4)cc13)-c1cc3c(c(=O)n1C2)COC(=O)[C@]3(O)CC` [Irinotecan], the “toxicity associated with low expression of UGT1A1” value in the data set on UGT1A1 is reported as “associated with the toxicity”.

Turning to `CN1CC[C@]23c4c5ccc(O[C@@H]6O[C@H](C(=O)O)[C@@H](O)[C@H](O)[C@H]6O)c4O[C@H]2[C@@H](O)C=C[C@H]3[C@H]1C5` [3-glucuronide], the activity towards morphine entry in data set [3] is reported as “morphine antagonist”.

In the case of `O=C(O)[C@H]1O[C@H](OP(=O)(O)OP(=O)(O)OC[C@H]2O[C@@H](n3ccc(=O)[nH]c3=O)[C@H](O)[C@@H]2O)[C@H](O)[C@@H](O)[C@@H]1O` [Uridine 5'-diphosphoglucuronic acid], the “inhibition … by b-glucuronidase” value in data set [1] is “not an effective competitor over the range tested”.
